Measurements as given in the supplement of paper PMC10307832.

What was measured:
Experiment in all cases: relative viability (nuclei count vs DMSO), 5 days (fraction); higher = more cells survive
[1] = compound: CN(C)CC1=CC(=CC=C1)N=C(C2=CC=CC=C2)C3=C(NC4=C3C=CC(=C4)C(=O)N(C)C)O + CS(=O)(=O)N1CCN(Cc2cc3nc(-c4cccc5[nH]ncc45)nc(N4CCOCC4)c3s2)CC1 [Pictilisib] (partner 1 µM)
In short: (§1)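 Relative viability equals treated-well nuclei counts divided by vehicle-well nuclei counts. Counts came from 4× images of lung cancer cell lines grown in 1536-well plates for 5 days after pin-tool dosing on the day after seeding. Dosing used one drug alone or a fixed anchor-drug dose plus five library-drug doses (not always all listed) in √10 steps, and values are medians of duplicate plates.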

[2] = compound: CN(C)CC1=CC(=CC=C1)N=C(C2=CC=CC=C2)C3=C(NC4=C3C=CC(=C4)C(=O)N(C)C)O + CC(C)C[C@H](NC(=O)[C@H](Cc1ccccc1)NC(=O)c1cnccn1)B(O)O [Bortezomib] (partner 0.002 µM)
In short: as §1

[3] = compound: CN(C)CC1=CC(=CC=C1)N=C(C2=CC=CC=C2)C3=C(NC4=C3C=CC(=C4)C(=O)N(C)C)O + CC(=O)Nc1cccc(-n2c(=O)n(C3CC3)c(=O)c3c(Nc4ccc(I)cc4F)n(C)c(=O)c(C)c32)c1 [Trametinib] (partner 0.02 µM)
In short: as §1

[4] = compound: CN(C)CC1=CC(=CC=C1)N=C(C2=CC=CC=C2)C3=C(NC4=C3C=CC(=C4)C(=O)N(C)C)O + O=C(c1cc(Cc2n[nH]c(=O)c3ccccc23)ccc1F)N1CCN(C(=O)C2CC2)CC1 [Olaparib] (partner 8 µM)
In short: as §1

Row | Cell Line | relative viability ([1]; first compound 0.08 µM) | relative viability ([1]; first compound 0.253 µM) | relative viability ([1]; first compound 0.8 µM) | relative viability ([1]; first compound 2.53 µM) | relative viability ([1]; first compound 8 µM) | relative viability ([2]; first compound 0.08 µM) | relative viability ([2]; first compound 0.253 µM) | relative viability ([2]; first compound 0.8 µM) | relative viability ([2]; first compound 2.53 µM) | relative viability ([2]; first compound 8 µM) | relative viability ([3]; first compound 0.08 µM) | relative viability ([3]; first compound 0.253 µM) | relative viability ([3]; first compound 0.8 µM) | relative viability ([3]; first compound 2.53 µM) | relative viability ([3]; first compound 8 µM) | relative viability ([4]; first compound 0.08 µM) | relative viability ([4]; first compound 0.253 µM) | relative viability ([4]; first compound 0.8 µM) | relative viability ([4]; first compound 2.53 µM) | relative viability ([4]; first compound 8 µM)
1 | NCI-H2126 | 0.451 | 0.518 | 0.451 | 0.541 | 0.507 | 1.14 | 1.08 | 1.13 | 1.07 | 1.1 | 0.6 | 0.59 | 0.484 | 0.602 | 0.55 | 0.885 | 0.87 | 0.907 | 0.912 | 0.957
2 | NCI-H2228 | 0.566 | 0.411 | 0.545 | 0.395 | 0.349 | 1.09 | 1.15 | 1.11 | 0.779 | 0.94 | 0.625 | 0.417 | 0.376 | 0.457 | 0.421 | 0.781 | 0.542 | 0.623 | 0.689 | 0.557
3 | NCI-H2347 | 0.868 | 0.637 | 0.697 | 0.663 | 0.6 | 0.828 | 1.22 | 0.83 | 1.17 | 1.12 | 0.301 | 0.26 | 0.278 | 0.252 | 0.33 | 0.536 | 0.584 | 0.593 | 0.572 | 0.575
4 | NCI-H2405 | 0.457 | 0.357 | 0.441 | 0.385 | 0.382 | 0.976 | 1.02 | 0.976 | 0.954 | 0.951 | 0.642 | 0.634 | 0.593 | 0.605 | 0.535 | 0.888 | 0.896 | 0.935 | 0.753 | 0.757
5 | NCI-H3122 | 0.664 | 0.55 | 0.643 | 0.698 | 0.746 | 0.984 | 0.99 | 1.06 | 0.959 | 0.98 | 0.225 | 0.203 | 0.235 | 0.245 | 0.243 | 0.587 | 0.587 | 0.678 | 0.59 | 0.721
6 | PC-3 [JPC-3] | 0.613 | 0.88 | 0.655 | 0.76 | 0.829 | 0.856 | 0.826 | 0.759 | 0.886 | 0.866 | 0.709 | 0.681 | 0.653 | 0.678 | 0.702 | 1.12 | 1.05 | 1.01 | 1.12 | 1.11
7 | PC-14 | 0.698 | 0.608 | 0.63 | 0.591 | 0.662 | 0.989 | 0.839 | 0.89 | 0.767 | 1.06 | 0.932 | 0.904 | 0.968 | 0.8 | 0.76 | 0.325 | 0.212 | 0.23 | 0.294 | 0.312
8 | RERF-LC-KJ | 0.518 | 0.595 | 0.57 | 0.625 | 0.515 | 1.36 | 1.12 | 1.07 | 1.01 | 1.02 | 0.911 | 0.837 | 0.844 | 0.907 | 0.846 | 0.971 | 0.906 | 0.882 | 0.9 | 0.904
9 | SK-LU-1 | 0.575 | 0.548 | 0.566 | 0.538 | 0.477 | 0.94 | 1.17 | 1.16 | 1.13 | 1.01 | 0.448 | 0.446 | 0.459 | 0.445 | 0.385 | 0.483 | 0.47 | 0.516 | 0.431 | 0.385
10 | SW 1573 | 0.474 | 0.512 | 0.523 | 0.385 | 0.456 | 1.04 | 1.16 | 1.06 | 0.946 | 0.94 | 0.56 | 0.572 | 0.587 | 0.637 | 0.515 | 0.362 | 0.416 | 0.419 | 0.523 | 0.377
11 | UMC-11 | 0.971 | 0.82 | 0.771 | 0.776 | 0.638 | 0.744 | 0.645 | 0.725 | 0.577 | 0.698 | 0.836 | 0.674 | 0.716 | 0.576 | 0.742 | 0.37 | 0.368 | 0.344 | 0.371 | 0.349
